Data: patent US6699497B1 (Alza Corporation, priority 1998, dated 2004)
Counter-ions that a name gives are not always drawn.

Assays:
[1] = in vitro transdermal flux of fenoldopam through human epidermis; assay type: in vitro ADME
Excerpt: The resulting mix was then calendered to a 5 mil thickness between 2 release liners. The drug reservoir was then heat laminated to a Medpar® backing on one surface and a 3M acrylate adhesive on the other. Circular systems were cut with a stainless steel punch.
The release liner of the matrix system was then removed and each system had its exposed edges masked. The systems were then mounted on a Teflon® holder of a release rate rod using nylon mesh and nickel wire. A known volume of receptor solution (30 ml 0.01 M phosphate buffer solution at pH 2.5) was then placed in a test tube and equilibrated at 35° C. The test tube was placed in a water bath and maintained at 35° C. The Teflon rod with attached system was then reciprocated within the test tube by attaching the rod to a motor which caused constant vertical mixing.
At given time intervals, the entire receptor solution was removed from the test tubes and replaced with an equal volume of fresh receptor solutions previously equilibrated at 35° C. […] From the drug concentration and the volume of the receptor solutions, the area of the system and the time interval, the release rate of the drug from the system was calculated as follows: (drug concentration X volume of receptor)/(area x time) =release rate (μg/cm^2·hr).
(§1) Transdermal systems set forth in Table 1 were prepared according to Example 1 and used to measure permeation through human cadaver skin. […] The edges of epidermis were then folded around the system so that none of the system edge was exposed to the receptor solution. […] The receptor compartment was filled with a known volume of 0.01 M KH2PO4/K2HPO4 which was adjusted to pH 2.5 with 10% H3PO4 buffer solution previously equilibrated at 35° C.
as §1, with “in Table 2 were prepared” for “in Table 1 were prepared”, “according to the procedure set forth in Example 1” for “according to Example 1”

[2] = in vivo; cited from earlier work
[3] = mild to moderate hypertensive patients; cited from earlier work
[4] = oral administration; cited from earlier work

lag period on transdermal administration [1]	permeability through the skin, formulations of base compared to formulations of salts ([1]; in general, compared to salts such as fenoldopam mesylate)	transdermal flux compared to formulations of the base ([1]; myristyl sarcosine as permeation enhancer)	Compound	effect on systolic and diastolic blood pressure [2]	elimination half-life [3]	clinical benefit [4]
long lag period	more permeable through the skin	–	Oc1ccc(C2CNCCc3c2cc(O)c(O)c3Cl)cc1 (stereo not shown) [fenoldopam base]	–	–	–
did not exhibit the long lag period	–	higher transdermal fluxes	Oc1ccc(C2CNCCc3c2cc(O)c(O)c3Cl)cc1 (stereo not shown) [fenoldopam mesylate]	–	–	–
–	–	–	Oc1ccc(C2CNCCc3c2cc(O)c(O)c3Cl)cc1 (stereo not shown) [fenoldopam, 6-Chloro-2,3,4,5-tetrahydro-1-(4-hydroxyphenol)-1H-3-benzapine-7,8 diol]	dose-dependent reduction in systolic and diastolic blood pressure	about 5 minutes	does not provide any clinical benefit
